In patent US9278942B2, “Non-steroidal compounds as androgen receptor modulators” (FLX Discoveries Oy, priority 2011, dated 2016):
Where two headings read alike, the source gives them in different places.

Columns and labels:
human AR [1] = molecular target: T1, human AR (Homo sapiens, UniProt P10275); test: AR antagonism assay: inhibition of transcriptional activation of AR (Probasin-luc reporter, COS-1 cells); format: cell-based; conditions: compound 10.0 μM, relative luciferase response: 100% for testosterone (no antiandrogenic effect), 0% for complete antagonism; for remaining activity at 10 µM: COS-1, 18 h, read-out: AR antagonism against 100 nM testosterone ± S.D.
T1 construct: expressed in transfected cells; host or cells: COS-1
T1 sequence (P10275 1-920): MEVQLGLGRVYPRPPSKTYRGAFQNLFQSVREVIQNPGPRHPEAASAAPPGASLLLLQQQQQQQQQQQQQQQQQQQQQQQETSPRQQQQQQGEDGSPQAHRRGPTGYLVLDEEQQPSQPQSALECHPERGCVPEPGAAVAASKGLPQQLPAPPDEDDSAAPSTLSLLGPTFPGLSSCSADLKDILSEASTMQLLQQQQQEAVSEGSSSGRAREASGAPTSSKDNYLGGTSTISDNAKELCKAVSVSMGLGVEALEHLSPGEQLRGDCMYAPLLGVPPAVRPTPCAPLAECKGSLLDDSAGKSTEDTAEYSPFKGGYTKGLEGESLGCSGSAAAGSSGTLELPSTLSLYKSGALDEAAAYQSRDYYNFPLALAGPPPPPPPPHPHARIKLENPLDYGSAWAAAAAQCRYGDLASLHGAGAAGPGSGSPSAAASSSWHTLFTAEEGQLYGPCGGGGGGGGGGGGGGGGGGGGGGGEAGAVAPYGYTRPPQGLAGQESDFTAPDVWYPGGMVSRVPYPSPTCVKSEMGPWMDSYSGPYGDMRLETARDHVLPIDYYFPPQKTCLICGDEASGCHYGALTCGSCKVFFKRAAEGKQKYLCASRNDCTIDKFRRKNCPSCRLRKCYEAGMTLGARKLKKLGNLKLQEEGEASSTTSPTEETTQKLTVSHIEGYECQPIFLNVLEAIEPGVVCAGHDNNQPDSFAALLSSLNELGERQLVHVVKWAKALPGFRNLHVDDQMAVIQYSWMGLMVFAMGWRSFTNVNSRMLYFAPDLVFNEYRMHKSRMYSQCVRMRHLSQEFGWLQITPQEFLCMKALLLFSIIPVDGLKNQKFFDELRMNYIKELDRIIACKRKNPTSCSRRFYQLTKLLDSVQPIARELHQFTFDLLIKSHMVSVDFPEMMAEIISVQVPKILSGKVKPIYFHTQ
Procedure: Determination of the Antiandrogen Activity.
Testosterone was bought from Sigma Chemical Co. (St. Louis, Mo.) and hydroxyflutamide from Chemos GmbH. One day before transfection, COS-1 cells (from ATCC) were seeded into 1 ml of DMEM (Dulbecco's modified Eagle medium, Gibco) with 10% dextran-charcoal-treated fetal bovine serum and 0.25% (vol/vol) Penicillin-Streptomycin (Euroclone) at a density of 70×10^3 cells/well. After medium change to DMEM 2.5% FBS, the cells were transfected for 24 hours with 10 ng/well of human AR expression vector pSG5-hAR, 100 ng/well of reporter plasmid Probasin-luc, and 10 ng/well of control plasmid pCMV-β-gal by using the TransIT method (Micrus Bio TransIT LT1, Transfection Reagent). After the transfection, the cells received treatment of test compounds giving final concentration of 10 μM for each compound. In the antagonist test the wells were also treated with 100 nM final concentration of testosterone. After 18 hours, the cells were washed, lysed and assayed for luciferase and normalization for β-galactosidase activities and protein concentrations. The cells were washed with 100 μl of cold phosphate buffered saline (PBS) and lysed with 35 μl 1× Reporter lysis Buffer (Promega) and frozen (−70° C.) for 30 minutes. Cell lysates were placed in 1.5-ml propylene tubes and centrifuged at 13200×g for 5 minutes at room temperature. For β-galactosidase assay 10 μl of supernatant from each cell extract was transferred to a 96-well plate (96 well Elisa Microplates, PS, Microcon) and incubated for 10 minutes at 37° C. with 65 μl of reaction mixture consisting 0.76 μl 100×Mg-buffer, 12.5 μl ONPG (4 mg/ml), and 54.3 μl of sodium-phosphate buffer (pH 7). The reaction was stopped with treatment of 125 μl Na2CO3. For luciferase assay 10 μl of the supernatant was transferred to a 96-well plate (Greiner Microlon lumitrac 200) and treated with 30 μl of luciferase assay substrate solution (Promega Luciferase Assay System E1501). For the study of protein concentrations 5 μl of the supernatant was transferred to a 96-well plate (Elisa Microplates, PS, Microcon) and mixed with 200 μl of Bio-rad protein assay reagent. The luciferase activities were measured with Thermo Luminoscan Ascent scanner and the protein concentrations and β-galactosidase activities with Thermo Labsystem Multiscan Ex scanner. Also blank and control samples were measured. During the maintenance, transfection, and treatment with tested compounds the cells were incubated in humidified atmosphere with 5% carbon dioxide at 37° C.

human AR [2] = molecular target: T1, human AR; test: Competitive AR binding assay against [3H]-R1881 in transiently transfected COS-1 cells; conditions: compound 13.4 μM, [3H]-R1881 1.34 nM, complete inhibition equals 100%; for inhibition at 13.4 µM: read-out: Inhibition of [3H]-R1881 binding at 1.34 nM ± S.D.
In short: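 COS-1 cells transfected 24 h with human AR vector, then after 36 h exposed 2 h at 37° C to compound at 10000-fold molar excess over 1.34 nM [3H]-R1881. Cell-bound radioactivity counted in triplicate; result given as % inhibition of labelled R1881 binding.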

SMILES | AR antagonism against 100 nM testosterone ± S.D. (human AR [1]) | Inhibition of [3H]-R1881 binding at 1.34 nM ± S.D. (human AR [2]; Table 2) | other results
c1ccc2c(C3=NOC4CCCCC34)cccc2c1 (single isomer, unassigned) [Example 33a, 3-Naphthalen-1-yl-3a,4,5,6,7,7a-hexahydro-benzo[d]-isoxazole] | 40.2 ± 7.1% | – | inhibition at 13.4 µM (human AR [2]; Table 1): 68.4 ± 1.9%
Fc1ccc(C2=NOC3CCCCC23)cc1C(F)(F)F (stereo not drawn) [Example 35ab, 3-(4-Fluoro-3-trifluoromethyl-phenyl)-3a,4,5,6,7,7a-hexahydro-benzo-[d]-isoxazole] | – | – | remaining activity at 10 µM (human AR [1]): 53.4 ± 5.4%; inhibition at 13.4 µM (human AR [2]; Table 2): 88.5 ± 4.2%
N#Cc1ccc(C2=NOC3CCCCCC23)c(C(F)(F)F)c1 (stereo not drawn) [Example 91b, 4-(4,5,6,7,8,8a-Hexahydro-3aH-cyclohepta[d]isoxazol-3-yl)-3-trifluoromethyl benzonitrile] | 27.2 ± 4.8% | 87.4 ± 2.7% | –
Fc1ccc(C2=NOC3CCCC23)cc1C(F)(F)F (stereo not drawn) [Example 19ab, 3-(4-Fluoro-3-trifluoromethyl-phenyl)-4,5,6,6a-tetrahydro-3aH-cyclopenta[d]-isoxazole] | – | – | remaining activity at 10 µM (human AR [1]): 54.6 ± 2.3%; inhibition at 13.4 µM (human AR [2]; Table 2): 84.6 ± 4.9%
N#Cc1ccc(C2=NOC3CCCCCC23)c(C(F)(F)F)c1 (stereo not drawn) [Example 91a, 4-(4,5,6,7,8,8a-Hexahydro-3aH-cyclohepta[d]isoxazol-3-yl)-3-trifluoromethyl benzonitrile] | – | – | remaining activity at 10 µM (human AR [1]): 29.8 ± 3.6%; inhibition at 13.4 µM (human AR [2]; Table 2): 85.4 ± 1.5%
O=[N+]([O-])c1ccc(C2=NOC3CCCCCC23)c(C(F)(F)F)c1 (stereo not drawn) [Example 42b, 3-(4-Nitro-2-trifluoromethyl-phenyl)-4,5,6,7,8,8a-hexahydro-3aH-cyclohepta[d]isoxazole] | 25.5 ± 1.5% | 89.5 ± 2.0% | Inhibition of [3H]-R1881 binding at 1.34 nM ± S.D. (human AR [2]; Table 3): 89.3 ± 4.8%
N#Cc1ccc(C2=NOC3CCCC23)cc1C(F)(F)F (single isomer, unassigned) [Example 85b, 4-(4,5,6,6a-Tetrahydro-3aH-cyclopenta[d]isoxazol-3-yl)-2-trifluoromethyl-benzonitrile] | 18.9 ± 0.5% | 91.8 ± 1.7% | –

Further lines, with some results ahead:

AR antagonism against 100 nM testosterone ± S.D. (human AR [1]) | SMILES | Inhibition of [3H]-R1881 binding at 1.34 nM ± S.D. (human AR [2]; Table 2) | other results
2.9 ± 0.5% | O=[N+]([O-])c1ccc(C2=NOC3CCCCC23)c(C(F)(F)F)c1 (single isomer, unassigned) [Example 38a, 3-(4-Nitro-2-trifluoromethyl-phenyl)-3a,4,5,6,7,7a-hexahydro-benzo-[d]-isoxazole] | – | inhibition at 13.4 µM (human AR [2]; Table 1): 94.5 ± 0.5%
40.9 ± 2.4% | Clc1ccc(C2=NOC3CCCCC23)cc1 (single isomer, unassigned) [Example 32a, 3-(4-Chloro-phenyl)-3a,4,5,6,7,7a-hexahydro-benzo[d]-isoxazole] | – | Inhibition of [3H]-R1881 binding at 1.34 nM ± S.D. (human AR [2]; Table 1): 30.5 ± 5.4%
100% | c1ccc2c(C3=NOC4CCCCC34)cccc2c1 (single isomer, unassigned) [Example 33b, 3-Naphthalen-1-yl-3a,4,5,6,7,7a-hexahydro-benzo[d]-isoxazole] | – | Inhibition of [3H]-R1881 binding at 1.34 nM ± S.D. (human AR [2]; Table 1): 56.9 ± 4.4%
30.0 ± 6.1% | Fc1ccc(C2=NOC3CCCCC23)c(C(F)(F)F)c1 (stereo not drawn) [Example 36b, 3-(4-Fluoro-2-trifluoromethyl-phenyl)-3a,4,5,6,7,7a-hexahydro-benzo[d]-isoxazole] | 87.7 ± 3.0% | –
65.5 ± 9.0% | N#Cc1ccc(C2=NOC3CCCCCCC23)c(C(F)(F)F)c1 (single isomer, unassigned) [Example 93b, 4-(3a,4,5,6,7,8,9,9a-Octahydro-cycloocta[d]isoxazol-3-yl)-3-trifluoromethyl-benzonitrile] | – | Inhibition of [3H]-R1881 binding at 1.34 nM ± S.D. (human AR [2]; Table 3): 76.0 ± 4.8%
75.9 ± 3.7% | O=[N+]([O-])c1ccc(C2=NOC3CCCCC23)c(C(F)(F)F)c1 (single isomer, unassigned) [Example 38b, 3-(4-Nitro-2-trifluoromethyl-phenyl)-3a,4,5,6,7,7a-hexahydro-benzo-[d]-isoxazole] | – | Inhibition of [3H]-R1881 binding at 1.34 nM ± S.D. (human AR [2]; Table 1): 90.7 ± 0.5%
